Test: Henry solubility constant Hcp at 298.15 K (mol/(m3 Pa))
Conditions: reference: Watanabe (1993)

SMILES | Henry solubility constant Hcp
CNC(=O)Oc1ccc(C)c(C)c1 [xylylcarb] | 91
CCN(CC)C(=O)SCc1ccc(Cl)cc1 [S-(4-chlorobenzyl) diethylthiocarbamate] | 19
CCC(C)c1ccccc1OC(=O)NC (stereo not given) [fenobucarb] | 150
CC(C)OP(=O)(OC(C)C)SCc1ccccc1 [iprobenphos] | 260
CCCCOCN(C(=O)CCl)c1c(CC)cccc1CC [butachlor] | 160
COP(=S)(OC)Oc1ccc([N+](=O)[O-])c(C)c1 [fenitrothion] | 83
CCOP(=S)(OCC)Oc1cc(C)nc(C(C)C)n1 [diazinon] | 11
CCCN(CCC)c1c([N+](=O)[O-])cc(C(F)(F)F)cc1[N+](=O)[O-] [trifluralin] | 0.91
CC(C)OC(=O)Nc1cccc(Cl)c1 [chlorpropham] | 23
CCOC(=O)CC(SP(=S)(OC)OC)C(=O)OCC (stereo not given) [malathion] | 670

Source: Sander's compilation of Henry's law constants (doi:10.1584/jpestics.18.3_201)
